Patent EP0411567A1, “5-(omega-Aminoacyl)-5,10-dihydro-11H-dibenzo[b,e][1,4]-diazepin-11-ones, processes for their preparation, and their use as medicaments” (ARZNEIMITTELWERK DRESDEN GmbH, priority 1989, dated 1991)
Structures can show the parent of a compound that is named as a salt. Where two headings read alike, the source gives them in different places.

Assays:
[1] = system: CaCl₂-Arrhythmie der Ratte; experiment: CaCl₂-induced arrhythmia in the rat (antifibrillatory effect); assay type: in vivo; details: iv; for ED50: Rattus norvegicus, read-out: CaCl₂-Arrhythmie Ratte, ED₅₀
From the text: (§1) ED₅₀ i.v. = Dosis in mg/kg, welche die fibrillatorische Wirkung von CaCl₂ an Ratten nach I.v.-Applikation der Testsubstanz um 50 % unterdrückt. Berechnung nach der Probit-Regressionsanalyse mit Vertrauensbereich, p = 0,05 (Werte in Klammern) LD₅₀ i.v. = Letale Dosis in mg/kg bei 50 % der Versuchstiere einer orientierenden Bestimmung der akuten Toxizität an Wistarratten hauseigener Zucht, I.v.-Applikation in die Schwanzvene, 3 - 4 Dosierungen zu je 10 Tieren.

[2] = system: Hunden, 24 Stunden nach zweistufiger Koronarligatur (Harris-Modell); experiment: Two-stage coronary ligation in the dog (Harris model); assay type: in vivo, Hund; details: for Ektopische Kontraktionen in Prozent/min / Gesamtzahl der Herzkontraktionen/min: mean x; for Harris Hund Wirkungsdauer / Harris Hund eff. Dosis i.v.: dogs, 24 h after two-stage coronary ligation; for Harris Hund Wirkungsdauer: at the effective i.v. dose
Experimental: Am Modell der zweistufigen Koronarligatur am Hund nach Harris (Methodik bei Kaverina und Mitarbeiter, Pharmazie 40, S. 845 (1985)) zeigen die Verbindungen der allgemeinen Formeln I, VII bzw. X eine starke und langanhaltende Wirkung (siehe Tabellen 2 und 3).
Bereits in der 5. Minute nach der intravenösen Injektion der Verbindungen der allgemeinen Formeln I, VII bzw. X in einer Konzentration von 0,005 mmol/kg (ca. 2,0 mg/kg) wird die ektopischeArrhythmie um das 2- bis 3-fache des Basiswertes unterdrückt, während die Gesamtzahl der Herzkontraktionen konstant bleibt. Die Wirkung auf die ektopische Arrhythmie hält 30 bis 60 Minuten lang an. Tabelle 1
(§2) Berechnung nach der Probit-Regressionsanalyse mit Vertrauensbereich, p = 0,05 (Werte in Klammern) [formula] zur Ermittlung der therapeutischen Breite eff. Dosis = effektive Dosis in mg/kg Wirkungsdauer = Wirkungsdauer in Minuten an Hunden, 24 h nach zweistufiger Koronarligatur
x = Mittelwert s = Standardabweichung ±

Wistarratten = experiment: Orienting determination of acute toxicity in rats, i.v.; assay type: in vivo, Ratte; details: therapeutic breadth; rat LD₅₀ i.v. / rat CaCl₂-arrhythmia ED₅₀
From the text: Die Verbindungen der allgemeinen Formeln I, VII bzw.
as §1, §2

[3] = system: Hunden, 24 Stunden nach zweistufiger Koronarligatur (Harris-Modell); details: Harris model, cited from earlier work
[4] = dose suppressing the fibrillatory effect of CaCl₂ by 50 %, probit regression, confidence range p = 0,05 in brackets
[5] = 30 min after 0,005 mmol/kg i.v.
[6] = 60 min after 0,005 mmol/kg i.v.
[7] = 120 min after 0,005 mmol/kg i.v.
[8] = 180 min after 0,005 mmol/kg i.v.
[9] = Basis (before injection), 0,005 mmol/kg group
[10] = 300 min after 0,005 mmol/kg i.v.
[11] = 360 min after 0,005 mmol/kg i.v.
[12] = 5 min after 0,02 mmol/kg (5,4 mg/kg)
[13] = 30 min after 0,02 mmol/kg (5,4 mg/kg)
[14] = Basis (before injection), 0,02 mmol/kg (5,4 mg/kg) group

Structure (SMILES) | ED50 [1, 4] | Ektopische Kontraktionen in Prozent/min ([2]; 5 min after 0,005 mmol/kg i.v.) | Gesamtzahl der Herzkontraktionen/min ([2]; 5 min after 0,005 mmol/kg i.v.) | Ektopische Kontraktionen in Prozent/min [2, 5] | Gesamtzahl der Herzkontraktionen/min [2, 5] | Ektopische Kontraktionen in Prozent/min [2, 6] | Gesamtzahl der Herzkontraktionen/min [2, 6] | Ektopische Kontraktionen in Prozent/min [2, 7] | Gesamtzahl der Herzkontraktionen/min [2, 7] | Ektopische Kontraktionen in Prozent/min [2, 9] | Gesamtzahl der Herzkontraktionen/min [2, 9] | Harris Hund Wirkungsdauer [2] | Harris Hund eff. Dosis i.v. [2] | Q LD₅₀/ED₅₀ (Wistarratten) | further results
CN(C)CCCCCC(=O)N1c2ccccc2NC(=O)c2ccccc21 [Beispiel 1, 5-(6-Dimethylaminocapronyl)-5,10-dihydro-11H-dibenzo [b,e]-[1,4] diazepin-11-on·HCl] | 0.41 mg/kg | 30 Prozent | 192 min⁻¹ | 47 Prozent | 193 min⁻¹ | 54 Prozent | 177 min⁻¹ | 68 Prozent | 175 min⁻¹ | 99 Prozent | 164 min⁻¹ | 60 min | 1,76 mg/kg | 207 | Ektopische Kontraktionen in Prozent/min [2, 8]: 80 Prozent; Gesamtzahl der Herzkontraktionen/min [2, 8]: 169 min⁻¹
CCN(CC)CCCC(=O)N1c2ccccc2NC(=O)c2ccccc21 [Beispiel 2, 5-(4-Diethylaminobutyryl)-5,10-dihydro-11H-dibenzo[b,e]-[1,4]diazepin-11-on] | – | 26 Prozent | – | 24 Prozent | – | 75 Prozent | – | 90 Prozent | – | 88 Prozent | – | – | – | – | –
CCN(CC)CCCC(=O)N1c2ccc(Cl)cc2NC(=O)c2ccccc21 [Beispiel 4, 8-Chlor-5-(4-diethylaminobutyryl)-5,10-dihydro-11H-dibenzo[b,e] [1,4]diazepin-11-on] | 0.044 mg/kg | – | 175 min⁻¹ | – | 180 min⁻¹ | – | 181 min⁻¹ | – | 183 min⁻¹ | – | 183 min⁻¹ | 30 min | 1,93 mg/kg | 1614 | –
CCN(CC)CCCCCC(=O)N1c2ccc(Cl)cc2NC(=O)c2ccccc21 [Beispiel 6, 8-Chlor-5-(6-diethylaminocapronyl)-5,10-dihydro-11H-dibenzo[be] [1,4]diazepin-11-on] | 0.44 mg/kg | 20 Prozent | 170 min⁻¹ | 4 Prozent | 159 min⁻¹ | 37 Prozent | 162 min⁻¹ | 76 Prozent | 162 min⁻¹ | 78 Prozent | 167 min⁻¹ | 60 min | 2,07 mg/kg | 86 | –
O=C1Nc2cc(Cl)ccc2N(C(=O)CCCCCCN2CCOCC2)c2ccccc21 [Beispiel 9, 8-Chlor-5-(7-N-morpholinoönanthoyl)-5,10-dihydro-11H-dibenzo [b,e] [1,4]diazepin-11-on] | 0.16 mg/kg | 21 Prozent | 179 min⁻¹ | 38 Prozent | 164 min⁻¹ | 42 Prozent | 168 min⁻¹ | 42 Prozent | 156 min⁻¹ | 90 Prozent | 156 min⁻¹ | 120 min | 2,21 mg/kg | 256 | Ektopische Kontraktionen in Prozent/min [2, 8]: 73 Prozent; Gesamtzahl der Herzkontraktionen/min [2, 8]: 159 min⁻¹; Ektopische Kontraktionen in Prozent/min [2, 10]: 79 Prozent; Gesamtzahl der Herzkontraktionen/min [2, 10]: 163 min⁻¹; Ektopische Kontraktionen in Prozent/min [2, 11]: 89 Prozent; Gesamtzahl der Herzkontraktionen/min [2, 11]: 180 min⁻¹
C=CC1CN2CCC1CC2C(O)c1ccnc2ccc(OC)cc12 (centres unmarked) [Chinidin] | – | – | – | – | – | – | – | – | – | – | – | – | – | – | CaCl₂-Arrhythmie Ratte, ED₅₀ ([1]; in vivo): 2,7 (2,0 - 3,7) mg/kg; Harris Hund Wirkungsdauer ([3]; dogs, listed as whose dose is marked [1] (literature)): 15 min; Harris Hund eff. Dosis i.v. ([3]; dogs, value marked [1] (Mokler and van Arman 1962)): 10,0 [1] mg/kg; Gesamtzahl der Herzkontraktionen ([3]; in words, literature [1]): Abnahme; ektopische Arrhythmie ([3]; in words, literature [1]): Abnahme
CCN(CC)CC(=O)Nc1c(C)cccc1C [Lidocain, reference compound] | – | – | – | – | – | – | – | – | – | – | – | 15 min | 8,0 mg/kg | – | ED50 [1]: 3.1 mg/kg; Ektopische Kontraktionen in Prozent/min [2, 12]: 34 Prozent; Gesamtzahl der Herzkontraktionen/min [2, 12]: 139 min⁻¹; Ektopische Kontraktionen in Prozent/min [2, 13]: 78 Prozent; Gesamtzahl der Herzkontraktionen/min [2, 13]: 138 min⁻¹; Ektopische Kontraktionen in Prozent/min [2, 14]: 83 Prozent; Gesamtzahl der Herzkontraktionen/min [2, 14]: 146 min⁻¹; Gesamtzahl der Herzkontraktionen ([2]; in words, Harris model): Abnahme; ektopische Arrhythmie ([2]; in words, Harris model): Abnahme
